Legend:
Format in all cases: in vivo
Tetranychus urticae [1] = assay: Prevention/extermination test against Tetranychus urticae (500 ppm); conditions: 312 h, 500 ppm active ingredient, soybean seedlings inoculated with imago, 25° C., after 13 days, read-out: prevention/extermination titer (preventive titer)
Procedure: (§1) The wettable powder prepared according to the above Preparation Example 2 was diluted with water to a concentration of 500 ppm as a concentration of active ingredient. Soybean seedlings which had previously been inoculated with the imago of Tetranychus urticae were soaked in the test solution, then air dried. The treated soybean seedlings were left at the constant temperature of 25° C. After 13 days from the treatment, the number of surviving mites was counted, and the prevention/extermination titer was calculated according to the formula 2 below.
(§2) In this test, representative compounds having the acaricidal effect with more than 90 of prevention/extermination titer include compound No. 63, 93, 77, 81, 105, 169, 190, 196 and 208.

Nilaparvata lugenis = assay: Insecticidal test for Nilaparvata lugenis; conditions: 144 h, 500 ppm active ingredient (wettable powder), 4-instar larvae on germinated rice paddy, 25° C., after 6 days, read-out: mortality rate
Procedure: The wettable powder prepared according to the above Preparation Example 2 was diluted with water to a concentration of 500 ppm as a concentration of active ingredient. After soaking the germinated rice paddy in the test solution, the paddy was transferred into a 60 ml volume of plastic cup. Ten (10) heads of 4-instar larvae of Nilaparvata lugenis were inoculated on the paddy and capped, then left at the constant temperature of 25° C. After 6 days from the inoculation, the number of surviving insects was counted, and mortality rate of the insect was calculated according to the following formula 1. mortality rate (%)=[(10−number of surviving insect in the test field)/10]×100 (1)

Tetranychus urticae [2] = assay: Prevention/extermination test against Tetranychus urticae (0.8 ppm); conditions: 312 h, 0.8 ppm active ingredient, soybean seedlings inoculated with imago, 25° C., after 13 days, read-out: prevention/extermination titer
Procedure: as §1
The wettable powder prepared according to the above Preparation Example 2 was diluted with water to a concentration of 0.8 ppm as a concentration of active ingredient. The same experiment as in Test Example 2 was carried out, and the prevention/extermination titer was calculated according to the formula 2.
as §2

ddy mouse (Slc:ddy) = assay: Oral acute toxicity test; set-up: key: 0/3 means none of 3 recipient animals died; 1/3 means one out of 3 recipient animals died; 2/3 means 2 out of 3 recipient animals died; 3/3 means all 3 recipient animals died; conditions: oral 30 mg/kg, mortality investigated for 7 days; for Test result Female (mortality, animals died out of 3): female ddy mouse; for Test result Male (mortality, animals died out of 3): male ddy mouse
Procedure: Oral acute toxicity test was conducted according to the method described in the guideline in “Guideline for the Preparation of Test Report on the Toxicity Studies”, published by the Ministry of Agriculture, Forestry and Fisheries of Japan. Experimental animals, 3 each of male and female of 7 weeks aged ddy mouse (Slc:ddy), were obtained from SLC Japan Inc. The compounds of the present invention and the reference substances were suspended in 0.5% sodium carboxymethyl cellulose or corn oil to give a 30 (mg/kg) equivalent amount for a dosage of 10 ml per 1 kg of body weight. The suspensions were inoculated using a sonde directly into the stomach of test animals which were fasted for 3 hours before inoculation. The test animals were fasted for additional 3 hours after inoculation, and the mortality of the inoculated animal was investigated for 7 days. In this table, 0/3 means none of 3 recipient animals died, 1/3 means one out of 3 recipient animals died, 2/3 means 2 out of 3 recipient animals died, 3/3 means all 3 recipient animals died.

## CC(CCCCOC(=O)c1cc2ccccc2o1)=C(F)F [Compound 7, 6,6-difluoro-5-methyl-5-hexenyl benzo[b]furan-2-carboxylate]
Tetranychus urticae [1]
  pest or weed control at 500 ppm: > 90%

## CC(CCCCOC(=O)c1cnc2ccccc2n1)=C(F)F [Compound 32, 6,6-difluoro-5-methyl-5-hexenyl quinoxaline-2-carboxylate]
Tetranychus urticae [1]
  pest or weed control at 500 ppm: > 90%
Nilaparvata lugenis
  mortality at 500 ppm: ≥ 90%

## CCCCCc1cc(C(=O)OCCC(C)=C(F)F)n(C)n1 [Compound 208, 4,4-difluoro-3-methyl-3-butenyl 2-methyl-5-pentyl-2H-pyrazole-3-carboxylate]
Tetranychus urticae [2]
  pest or weed control at 0.8 ppm: > 90%

## CC(CCCCOC(=O)c1c[nH]c2ccccc12)=C(F)F [Compound 13, 6,6-difluoro-5-methyl-5-hexenyl 1H-indole-3-carboxylate]
Tetranychus urticae [1]
  pest or weed control at 500 ppm: > 90%

## CCCCn1ncc(C(=O)OCCC(C)=C(F)F)c1C [Compound 203, 4,4-difluoro-3-methyl-3-butenyl 1-butyl-5-methyl-1H-pyrazole-4-carboxylate]
Tetranychus urticae [1]
  pest or weed control at 500 ppm: > 90%

## CC(CCOC(=O)c1sc(C2CCCCC2)nc1C)=C(F)F [Compound 169, 4,4-difluoro-3-methyl-3-butenyl 2-cyclohexyl-4-methylthiazole-5-carboxylate]
Tetranychus urticae [2]
  pest or weed control at 0.8 ppm: > 90%
Nilaparvata lugenis
  mortality at 500 ppm: ≥ 90%

## CC(CCOC(=O)c1sc(-c2ccccc2)nc1C)=C(F)F [Compound 63, 4,4-difluoro-3-methyl-3-butenyl 4-methyl-2-phenyl-thiazole-5-carboxylate]
Tetranychus urticae [2]
  pest or weed control at 0.8 ppm: > 90%
Ddy mouse (Slc:ddy)
  Test result Female (mortality, animals died out of 3): 0/3
  Test result Male (mortality, animals died out of 3): 0/3

## CC(CCCCOC(=O)c1n[nH]c2ccccc12)=C(F)F [Compound 33, 6,6-difluoro-5-methyl-5-hexenyl 1H-indazole-3-carboxylate]
Tetranychus urticae [1]
  pest or weed control at 500 ppm: > 90%
Nilaparvata lugenis
  mortality at 500 ppm: ≥ 90%

## CCCCOc1ncc(C(=O)OCCC(C)=C(F)F)c(C)n1 [Compound 105, 4,4-difluoro-3-methyl-3-butenyl 2-butoxy-4-methyl-pyrimidine-5-carboxylate]
Tetranychus urticae [2]
  pest or weed control at 0.8 ppm: > 90%
Ddy mouse (Slc:ddy)
  Test result Female (mortality, animals died out of 3): 0/3
  Test result Male (mortality, animals died out of 3): 0/3

## CC(CCCCOC(=O)c1cnnc2ccccc12)=C(F)F [Compound 37, 6,6-difluoro-5-methyl-5-hexenyl cinnoline-4-carboxylate]
Tetranychus urticae [1]
  pest or weed control at 500 ppm: > 90%

## CC(CCOC(=O)c1ccc(OC2CCCC2)nc1)=C(F)F [Compound 81, 4,4-difluoro-3-methyl-3-butenyl 6-cyclopentyloxy-nicotinate]
Tetranychus urticae [2]
  pest or weed control at 0.8 ppm: > 90%
Ddy mouse (Slc:ddy)
  Test result Female (mortality, animals died out of 3): 0/3
  Test result Male (mortality, animals died out of 3): 0/3

## CC(CCCCOC(=O)c1c(-c2ccccc2)noc1C)=C(F)F [Compound 12, 6,6-difluoro-5-methyl-5-hexenyl 5-methyl-3-phenyl-isoxazole-4-carboxylate]
Tetranychus urticae [1]
  pest or weed control at 500 ppm: > 90%

## CC(CCOC(=O)c1cnc(-c2ccccc2)s1)=C(F)F [Compound 190, 4,4-difluoro-3-methyl-3-butenyl 2-phenylthiazole-5-carboxylate]
Tetranychus urticae [2]
  pest or weed control at 0.8 ppm: > 90%

## CCCCOc1ccc(C(=O)OCCC(C)=C(F)F)cn1 [Compound 77, 4,4-difluoro-3-methyl-3-butenyl 6-butoxynicotinate]
Tetranychus urticae [2]
  pest or weed control at 0.8 ppm: > 90%
Ddy mouse (Slc:ddy)
  Test result Female (mortality, animals died out of 3): 0/3
  Test result Male (mortality, animals died out of 3): 0/3

## CC(CCOC(=O)c1cc(-c2ccccc2)n(C)n1)=C(F)F [Compound 194, 4,4-difluoro-3-methyl-3-butenyl 1-methyl-5-phenyl-1H-pyrazole-3-carboxylate]
Tetranychus urticae [1]
  pest or weed control at 500 ppm: > 90%

## CC(CCCCOC(=O)c1ccc2nn(CCCCC(C)=C(F)F)nc2c1)=C(F)F [Compound 31, 6,6-difluoro-5-methyl-5-hexenyl 2-(6,6-difluoro-5-methyl-5-hexenyl)-2H-benzotriazole-5-carboxylate]
Tetranychus urticae [1]
  pest or weed control at 500 ppm: > 90%

## CC(CCCCOC(=O)c1ccc2c(c1)ncn2CCCCC(C)=C(F)F)=C(F)F [Compound 35, 6,6-difluoro-5-methyl-5-hexenyl 1-(6,6-difluoro-5-methyl-5-hexenyl)-1H-benzoimidazole-5-carboxylate]
Tetranychus urticae [1]
  pest or weed control at 500 ppm: > 90%

## CC(CCCCOC(=O)c1cc2ccccc2cn1)=C(F)F [Compound 27, 6,6-difluoro-5-methyl-5-hexenyl isoquinoline-3-carboxylate]
Tetranychus urticae [1]
  pest or weed control at 500 ppm: > 90%

## CC(CCCCOC(=O)c1ccc2nsnc2c1)=C(F)F [Compound 42, 6,6-difluoro-5-methyl-5-hexenyl benzo[1,2,5]-thiadiazole-5-carboxylate]
Tetranychus urticae [1]
  pest or weed control at 500 ppm: > 90%

## CC(CCOC(=O)c1cnc(-c2ccccc2)nc1C)=C(F)F [Compound 93, 4,4-difluoro-3-methyl-3-butenyl 4-methyl-2-phenyl-pyrimidine-5-carboxylate]
Tetranychus urticae [2]
  pest or weed control at 0.8 ppm: > 90%
Ddy mouse (Slc:ddy)
  Test result Female (mortality, animals died out of 3): 0/3
  Test result Male (mortality, animals died out of 3): 0/3

## CCN(c1ccc(C)cc1)c1nc(C)c(C(=O)OCCC(C)=C(F)F)s1 [Compound 185, 4,4-difluoro-3-methyl-3-butenyl 2-(N-ethyl-N-4-tolylamino)-4-methylthiazole-5-carboxylate]
Tetranychus urticae [1]
  pest or weed control at 500 ppm: > 90%

## CC(CCOC(=O)c1cn(-c2ccccc2)nc1C)=C(F)F [Compound 196, 4,4-difluoro-3-methyl-3-butenyl 3-methyl-1-phenyl-1H-pyrazole-4-carboxylate]
Tetranychus urticae [2]
  pest or weed control at 0.8 ppm: > 90%
